Counter-ions that a name gives are not always drawn.
Tests used:
rat 5-HT7a receptor = rat 5-HT7a receptor (Rattus norvegicus, UniProt P32305); experiment: Affinity for 5-HT7 receptor binding sites, radioligand binding with [3H]5-CT; conditions: membranes of HEK-293 cells with rat 5-HT7a, 1 nM [3H]5-CT
Outline: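 Competition binding on membranes from HEK-293 cells stably expressing rat 5-HT7a, 135 μg protein/mL in 50 mM Tris-HCl pH 7.5, 5 mM EDTA. Incubated 60 min at RT with 1 nM [3H]5-CT and increasing compound concentrations; nonspecific binding with 10 μM 5-HT. Filtration and scintillation counting, in triplicate.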

5-HT2B receptor = 5-HT2B receptor (Homo sapiens, UniProt P41595); experiment: Affinity for 5HT2 receptor binding sites, h5-HT2B, [3H]mesulergine; conditions: CHO h5-HT2B membranes
[1] = molecular target: T1, human recombinant 5-HT2C receptor (Homo sapiens, UniProt P28335); experiment: Affinity for 5HT2 receptor binding sites, h5-HT2C, [3H]mesulergine; conditions: CHO h5-HT2C membranes
T1 sequence (P28335 33-458): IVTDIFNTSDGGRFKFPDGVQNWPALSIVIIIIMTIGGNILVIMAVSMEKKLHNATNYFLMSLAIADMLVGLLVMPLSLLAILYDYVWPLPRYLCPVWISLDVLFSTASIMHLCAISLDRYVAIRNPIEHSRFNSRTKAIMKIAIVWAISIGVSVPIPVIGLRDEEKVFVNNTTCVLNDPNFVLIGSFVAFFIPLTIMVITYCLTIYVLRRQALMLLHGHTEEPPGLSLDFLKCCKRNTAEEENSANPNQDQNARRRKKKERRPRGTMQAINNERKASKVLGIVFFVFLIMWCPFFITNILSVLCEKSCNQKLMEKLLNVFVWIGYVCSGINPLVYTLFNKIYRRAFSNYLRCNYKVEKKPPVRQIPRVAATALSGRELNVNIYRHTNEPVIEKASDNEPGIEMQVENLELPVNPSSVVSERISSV

[2] = molecular target: human recombinant 5-HT6 receptor (Homo sapiens, UniProt P50406); experiment: Affinity for 5-HT6 receptor binding sites, [3H]LSD; conditions: HEK-293 h5-HT6 membranes
5-HT2A receptor = 5-HT2A receptor (Homo sapiens, UniProt P28223); experiment: Affinity for 5-HT2A receptor binding sites, radioligand binding with [3H]ketanserin; conditions: read-out: Ki 5-HT2A, rat cortex membranes (assay 2) or NIH3T3 h5-HT2A membranes (assay 3), table does not say which

Chain of human recombinant 5-HT6 receptor (P50406 whole entry): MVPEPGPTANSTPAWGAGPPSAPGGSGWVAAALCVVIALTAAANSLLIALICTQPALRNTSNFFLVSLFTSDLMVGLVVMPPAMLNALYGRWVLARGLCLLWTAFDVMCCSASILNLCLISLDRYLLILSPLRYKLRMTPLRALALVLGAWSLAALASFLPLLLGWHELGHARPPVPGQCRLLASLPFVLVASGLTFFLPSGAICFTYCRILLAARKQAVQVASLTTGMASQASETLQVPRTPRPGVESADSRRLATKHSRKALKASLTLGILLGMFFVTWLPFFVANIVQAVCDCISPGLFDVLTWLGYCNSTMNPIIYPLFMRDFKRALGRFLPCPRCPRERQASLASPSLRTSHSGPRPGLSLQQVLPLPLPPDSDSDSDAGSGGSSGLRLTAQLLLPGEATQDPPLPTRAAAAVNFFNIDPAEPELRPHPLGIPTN
Chain of 5-HT2B receptor (P41595 whole entry): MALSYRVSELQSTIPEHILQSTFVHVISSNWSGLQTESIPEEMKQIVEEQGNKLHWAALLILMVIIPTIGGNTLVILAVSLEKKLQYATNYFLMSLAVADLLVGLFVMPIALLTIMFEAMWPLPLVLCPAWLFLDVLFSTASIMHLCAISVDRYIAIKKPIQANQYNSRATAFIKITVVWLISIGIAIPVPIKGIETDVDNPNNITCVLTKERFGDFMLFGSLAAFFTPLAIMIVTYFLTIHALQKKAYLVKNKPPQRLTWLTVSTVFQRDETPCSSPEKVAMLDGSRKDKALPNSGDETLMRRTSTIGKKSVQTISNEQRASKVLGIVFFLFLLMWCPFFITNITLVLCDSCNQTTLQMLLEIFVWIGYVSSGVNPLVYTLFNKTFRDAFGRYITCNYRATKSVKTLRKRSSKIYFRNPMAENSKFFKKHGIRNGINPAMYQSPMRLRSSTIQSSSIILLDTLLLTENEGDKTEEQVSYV
Chain of rat 5-HT7a receptor (P32305 whole entry): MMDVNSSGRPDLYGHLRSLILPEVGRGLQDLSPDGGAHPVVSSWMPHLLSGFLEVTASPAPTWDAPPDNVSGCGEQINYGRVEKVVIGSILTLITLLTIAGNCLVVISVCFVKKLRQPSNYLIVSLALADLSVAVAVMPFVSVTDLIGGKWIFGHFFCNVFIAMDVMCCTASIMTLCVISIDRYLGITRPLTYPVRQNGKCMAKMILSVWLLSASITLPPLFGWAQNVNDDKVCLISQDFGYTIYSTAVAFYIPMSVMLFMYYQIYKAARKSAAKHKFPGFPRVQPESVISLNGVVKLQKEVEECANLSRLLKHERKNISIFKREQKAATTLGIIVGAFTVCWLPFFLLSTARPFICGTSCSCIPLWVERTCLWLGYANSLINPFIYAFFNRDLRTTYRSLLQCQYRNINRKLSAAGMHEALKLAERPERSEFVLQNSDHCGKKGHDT

Structure (SMILES) | Ki (rat 5-HT7a receptor) [nM] | Ki (5-HT2B receptor) [nM] | Ki [1] [nM] | Ki [2] [nM] | Ki (5-HT2A receptor) [nM]
N#Cc1ccc(-c2nc(C3CCCC3)nc3c2CCNCC3)cc1 [Example 49, 4-(2-Cyclopentyl-6,7,8,9-tetrahydro-5H-pyrimido[4,5-d]azepin-4-yl)-benzonitrile] | 300 | 25 | 400 | 200 | 50
CC(C)c1nc2c(c(-c3ccc(F)cc3)n1)CCCNC2 [Example 65, 4-(4-Fluoro-phenyl)-2-isopropyl-6,7,8,9-tetrahydro-5H-pyrimido[4,5-c]azepine hydrochloride] | > 10000 | 300 | 570 | > 10000 | 20
CNC1CCc2nc(C(C)C)nc(-c3ccc(F)cc3)c2C1 (stereo not shown) [Example 109, [4-(4-Fluoro-phenyl)-2-isopropyl-5,6,7,8-tetrahydro-quinazolin-6-yl]-methyl-amine hydrochloride] | > 10000 | > 10000 | > 10000 | > 10000 | 400
CCC(C)c1nc2c(c(-c3ccc(F)cc3)n1)CNCC2 (stereo not shown) [Example 3, 2-sec-Butyl-4-(4-fluoro-phenyl)-5,6,7,8-tetrahydro-pyrido[4,3-d]pyrimidine hydrochloride] | > 10000 | 2250 | 1020 | > 10000 | –
Cc1ccc(-c2nc(C(C)C)nc3c2CNCC3C)cc1 (stereo not shown) [Example 102, 2-Isopropyl-8-methyl-4-p-tolyl-5,6,7,8-tetrahydro-pyrido[4,3-d]pyrimidine hydrochloride] | > 10000 | 150 | 230 | 370 | 20
Fc1ccc(-c2nc(Cc3ccccc3)nc3c2CCNCC3)cc1 [Example 54, 2-Benzyl-4-(4-fluoro-phenyl)-6,7,8,9-tetrahydro-5H-pyrimido[4,5-d]azepine] | 5000 | 30 | 20 | 30 | 0.55
Fc1ccc(-c2nc(Cc3ccccc3)nc3c2CCN(Cc2ccccc2)C3)cc1 [Example 70, 2,7-Dibenzyl-4-(4-fluoro-phenyl)-5,6,7,8-tetrahydro-pyrido[3,4-d]pyrimidine hydrochloride] | > 10000 | > 10000 | 3730 | 250 | 117
Fc1ccc(-c2nc(C3CCCC3)nc3c2CCNCC3)cc1 [Example 46, 2-Cyclopentyl-4-(4-fluoro-phenyl)-6,7,8,9-tetrahydro-5H-pyrimido[4,5-d]azepine] | 120 | 30 | 200 | 100 | 14
Cc1ccc(-c2nc(C3CCCC3)nc3c2CCNCC3)cc1 [Example 47, 2-Cyclopentyl-4-p-tolyl-6,7,8,9-tetrahydro-5H-pyrimido[4,5-d]azepine] | 30 | 1 | 22 | 12 | –
CC(C)N1CCc2c(nc(Cc3ccccc3)nc2-c2ccc(F)cc2)C1 [Example 83, 2-Benzyl-4-(4-fluoro-phenyl)-7-isopropyl-5,6,7,8-tetrahydro-pyrido[3,4-d]pyrimidine] | > 10000 | 1000 | 300 | 230 | 30
Cc1ccc(-c2nc(C3CCCC3)nc3c2CCN(C)CC3)cc1 [Example 59, 2-Cyclopentyl-7-methyl-4-p-tolyl-6,7,8,9-tetrahydro-5H-pyrimido[4,5-d]azepine] | 100 | 7.8 | 29 | 20 | 1.5
Cc1ccc(-c2nc(Cc3ccccc3)nc3c2CCNC3)cc1 [Example 77, 2-Benzyl-4-p-tolyl-5,6,7,8-tetrahydro-pyrido[3,4-d]pyrimidine hydrochloride] | 22 | 200 | 130 | 400 | 15
Cc1ccc(-c2nc(Cc3ccccc3)nc3c2CNCC3)cc1 [Example 8, 2-Benzyl-4-p-tolyl-5,6,7,8-tetrahydro-pyrido[4,3-d]pyrimidine] | 1000 | 1000 | 320 | 200 | 20
Cc1ccc(-c2nc(Cc3ccccc3)nc3c2CCN(C)CC3)cc1 [Example 61, 2-Benzyl-7-methyl-4-p-tolyl-6,7,8,9-tetrahydro-5H-pyrimido[4,5-d]azepine] | 250 | 15 | 35 | 20 | 1.9
CC(C)c1nc2c(c(-c3ccc(F)cc3)n1)CCC(N1CCCC1)C2 (stereo not shown) [Example 107, 4-(4-Fluoro-phenyl)-2-isopropyl-7-pyrrolidin-1-yl-5,6,7,8-tetrahydro-quinazoline] | > 10000 | 275 | 500 | 4000 | 12
FC(F)(F)c1ccc(-c2nc(Cc3ccccc3)nc3c2CCNCC3)cc1 [Example 56, 2-Benzyl-4-(4-trifluoromethyl-phenyl)-6,7,8,9-tetrahydro-5H-pyrimido[4,5-d]azepine] | 180 | 22 | 38 | 30 | 0.8
COc1ccc(-c2nc(C3CCCC3)nc3c2CCNCC3)cc1 [Example 48, 2-Cyclopentyl-4-(4-methoxy-phenyl)-6,7,8,9-tetrahydro-5H-pyrimido[4,5-d]azepine] | 40 | 3 | 100 | 24 | 20
CN1CCc2nc(C3CCCC3)nc(-c3ccc(F)cc3)c2CC1 [Example 58, 2-Cyclopentyl-4-(4-fluoro-phenyl)-7-methyl-6,7,8,9-tetrahydro-5H-pyrimido[4,5-d]azepine] | > 10000 | 40 | 30 | 100 | 2
CC(C)c1nc2c(c(-c3ccc(Cl)cc3)n1)CNCC2 [Example 29, 4-(4-Chloro-phenyl)-2-isopropyl-5,6,7,8-tetrahydro-pyrido[4,3-d]pyrimidine] | > 10000 | 1600 | 2000 | > 10000 | 240
CC(C)c1nc2c(c(-c3ccc(F)cc3)n1)CCNC2 [Example 80, 4-(4-Fluoro-phenyl)-2-isopropyl-5,6,7,8-tetrahydro-pyrido[3,4-d]pyrimidine hydrochloride] | > 10000 | 158 | 940 | 2800 | 11
COc1ccc(-c2nc(C3CCCC3)nc3c2CCN(C)CC3)cc1 [Example 60, 2-Cyclopentyl-4-(4-methoxy-phenyl)-7-methyl-6,7,8,9-tetrahydro-5H-pyrimido[4,5-d]azepine] | 400 | 10 | 60 | 60 | 6
Cc1ccc(-c2nc(Cc3ccccc3)nc3c2CCNCC3)cc1 [Example 55, 2-Benzyl-4-p-tolyl-6,7,8,9-tetrahydro-5H-pyrimido[4,5-d]azepine] | 35 | 2.5 | 16 | 8.5 | 0.42
Fc1ccc(-c2nc(Cc3ccccc3)nc3c2CNCCC3)cc1 [Example 69, 2-Benzyl-4-(4-fluoro-phenyl)-6,7,8,9-tetrahydro-5H-1,3,6-triaza-benzocycloheptene hydrochloride] | > 10000 | > 10000 | 650 | 7100 | –

— patent US7598255B2 (Janssen Pharmaceutica NV, priority 2005, dated 2009)
